The values below come from EP2123328A1 (priority 2008, dated 2009).

Structures are written as SMILES. Read-outs that look alike come from different tables or passages of the source.

For one test, the target named is T1, γ-secretase (Homo sapiens, UniProt P49768).
T1 construct: endogenous in cells; host or cells: HEK293 cells stably expressing APP751
The test is described as follows: Inhibitory effect on γ-secretase: ELISA of human β-amyloid in the cell medium of APP751-expressing HEK293 cells. Format: cell-based. The following applies: for γ-Secretase effect: concentration 2 µM, compared with DAPT; for γ-Secretase effect / quantity of amyloid β: figure 3; for concentrations at which the substances have γ-secretase activity / decrease of β-amyloid quantity in the cell medium: tested at 0,02, 0,2 and 2 µM, Figure 2; for quantity of amyloid β: concentration 0,02 µM. The procedure: To a solution of norgalanthamine hydrochloride (0.42 g 1.3560 mmol) in DMF under cooling Et3N (0.19 ml 1.3520 mmol) and N-(3,4-dichlorophenyl)-alanyl-valine (0.50 g 1.5009 mmol) and N-cyclohexyl-N-[β-(N-methylformolino)-ethyl-] carbodiimide (0.64 g 1.5109 mmol) was added. The reaction mixture was stirred for 24 hours at room temperature and the end of reaction was monitored in a system of n-BuOH:AcOH:H2O= 3:1:1 To the reaction mixture 5 % NaHCO3 was add, followed by precipitate formation. The precipitate was washed by suspending in 5 % NaHCO3 and H2O. […] 137-141 °C, yield 37 %, chromatographically pure in a system of CHCl3:MeOH=9:1 and n-BuOH:AcOH:H2O= 3:1:1. IR [cm^-1]: 3384, 3062, 3028, 2930, 1640, 1599, 1280, 1240, 1059, 753, 701. HPLC: Rt= 2.58 and 2.76 min for S and R isomers. 1H NMR (CDCl3, ppm ) δ: 7.10-7.30 (2H, NH), 7.0-6.20 (10H, 5H Ph + H9', H10'+ 3H PhCl), 6.0 (m, 2H, H4', H5'), 4.7-4.4 (m, 4H, CH2NCH2), 4.5 (m, 1H, H1'), 4.14 (m, 1H, H3'), 3.85 (s, 3H, O-CH3), 3.90 (m, 1H, CHCH2Ph), 3.75 (q, 1H, CHCH3), 3.20 (m, 1H, CHCH2Ph), 2.70 (d, J=15.9 Hz, 1H, H2a'), 2.02 (d, J=15.9 Hz, 1H, H2b'), 1.90 (m, CH2), 1.30 (d, , 3H, CHCH3). Elemental analysis - nitrogen determination: C34H36N3Cl2O5, M.M= 636.54 theoretical 6.60 % N, calculated 6.62 % N. Mass spectrometry: C34H36N3Cl2O5, M.M= 636.20 found [M+H]^+=636.55. […] 133-138 °C, yield 35 %, chromatographically pure in a system of CHCl3:MeOH=9:1 and n-BuOH:AcOH:H2O= 3:1:1. IR [cm^-1]: 3338, 2963, 2931, 2874, 1656, 1630, 1599, 1382, 1373, 1279, 1214, 1059. HPLC: Rt= 2.35 and 2.53 min for S and R isomers. 1H NMR (CDCl3, ppm) δ: 7.10-7.30 (2H, NH), 7.0-6.20 (5H, H9', H10', 3H PhCl), 5.90 (m, 2H, H4', H5'), 4.7-4.4 (m, 4H, CH2NCH2), 4.5 (m, 1H, H1'), 4.15 (m, 1H, H3'), 3.86 (s, 3H, O-CH3), 3.85 (m, 1H, H2), 3.75 (q, 1H, CHCH3), 3.20 (m, 1H), 2.70 (d, J=15.9 Hz, 1H, H2a'), 2.40 (m, 1H, CH(CH3)2), 2.02 (d, J=15.9 Hz, 1H, H2b'), 1.90 (m, CH2), 1.30 (d, 3H, CHCH3), 0.80 (d, 6H, 2 x CH3). Elemental analysis - nitrogen determination: C29H33N3Cl2O5, M.M= 588.41 calculated 7.14 % N, found 6.98 % N. Mass spectrometry: C29H33N3Cl2O5, M.M= 587.20 found [M+H]^+=588.45. Example 14 The study of inhibitory effect on γ-secretase of the compounds under the inventions took place on expressing APP751 HEK293 cells using the following methods: (1) cell cultivation of expressing APP751 HEK293 cells, and (2) ELISA (solid-phase sandwich enzyme-linked immunosorbent assay) of human β-amyloid protein. HEK293 cells were cultivated in Dulbecco's modified Eaglr's medium (Applichem, Germany) with added 10% fetal calf serum (Biowhittaker, USA) and 200 U/ml Penicillin and […] Streptomycin (Applichem, Germany) at 37°C and 5% CO2. ELISA kits of human β-amyloid are intended for in vitro quantitative determination of a native or recombinant β-amyloid in serum, supernatant of cell cultures or other biological samples. In short, a monoclonal antibody specific for the amino end of β-amyloid was immobilized for a 96-pit plate. β-amyloid antigen from the standards or from the samples was connected with this first antibody. Then a second antibody was placed for detection of the specific β-amyloid 1 - 42. An anti-rabbit antibody IgG-HRP completed the sandwich. The reaction was visualized by means of 3,3",5,5"-tetramethylbenzidine (TMB) substrate, following by a stop solution. Yellow colour intensity was in direct proportion to the concentration of β-amyloid in the original sample. The sensitivity of these ELISA was < 10 pg/ml β-amyloid. ELISA method was used to study the inhibitory effect on γ-secretase of the compounds obtained according to the invention on expressing APP751 HEK293 cells. The following abbreviations were used: • 1. 6-O-N-[N- (3,4-dichlorophenyl)-D,L-alanyl]-glycil-galanthamine - AG-GAL • 2. […] 6-O-N-[N- (3,4-dichlorophenyl)-D,L-alanyl]-L-leucil-glycil-galanthamine - ALG-GAL • 4. 6-O-N-[N- (3,4-dichlorophenyl)-D,L-alanyl]-L-valyl-glycil-galanthamine - AVG-GAL • 5. N-(3,4-dichlorophenyl)-D,L-alanyl-L-phenylalanine - AF • 6. […]
Background: In an ELISA, binding on a coated surface is turned into a signal by an enzyme label.

The next test addresses T2, butyrylcholinesterase (Homo sapiens, UniProt P06276).
T2 construct: purchased Sigma
Briefly: biochemical.

The next test has as its target T3, acetylcholinesterase (Homo sapiens, UniProt P22303).
T3 construct: purchased Sigma
The test is described as follows: biochemical. As for the experimental part:
Acetylcholine iodide was used as substrate. Acetylcholinesterase is a commercial product (Sigma). […] After stirring, 1 EU acetylcholinesterase was added. […] Each test was repeated 3 times. The test substances was dissolved in 50% ethyl alcohol.

Setting [1] is: 0,1 M sodium phosphate buffer pH 8,0, 25 °C, 30 min preincubation, butyrylcholine iodide substrate, read-out: IC50.
The mark [2] stands for this setting: 0,1 M sodium phosphate buffer pH 8,0, 25 °C, 30 min preincubation, acetylcholine iodide substrate, read-out: IC50.

T2 sequence (P06276 29-602): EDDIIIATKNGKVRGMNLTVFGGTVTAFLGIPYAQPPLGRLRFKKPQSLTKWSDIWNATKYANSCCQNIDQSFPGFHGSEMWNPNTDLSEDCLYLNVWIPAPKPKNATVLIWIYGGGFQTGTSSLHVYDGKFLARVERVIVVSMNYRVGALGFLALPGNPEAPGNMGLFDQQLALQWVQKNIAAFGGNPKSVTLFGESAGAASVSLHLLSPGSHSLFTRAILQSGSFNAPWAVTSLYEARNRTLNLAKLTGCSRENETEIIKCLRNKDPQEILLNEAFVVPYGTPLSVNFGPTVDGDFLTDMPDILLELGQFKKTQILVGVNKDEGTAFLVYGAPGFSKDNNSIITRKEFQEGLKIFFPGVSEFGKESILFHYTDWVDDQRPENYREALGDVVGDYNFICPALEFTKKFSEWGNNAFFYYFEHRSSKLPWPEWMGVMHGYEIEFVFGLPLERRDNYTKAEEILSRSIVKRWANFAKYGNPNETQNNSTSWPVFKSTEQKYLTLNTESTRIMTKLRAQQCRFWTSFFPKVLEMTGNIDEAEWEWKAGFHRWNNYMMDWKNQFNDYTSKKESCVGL
T3 sequence (P22303 32-614, species assumed): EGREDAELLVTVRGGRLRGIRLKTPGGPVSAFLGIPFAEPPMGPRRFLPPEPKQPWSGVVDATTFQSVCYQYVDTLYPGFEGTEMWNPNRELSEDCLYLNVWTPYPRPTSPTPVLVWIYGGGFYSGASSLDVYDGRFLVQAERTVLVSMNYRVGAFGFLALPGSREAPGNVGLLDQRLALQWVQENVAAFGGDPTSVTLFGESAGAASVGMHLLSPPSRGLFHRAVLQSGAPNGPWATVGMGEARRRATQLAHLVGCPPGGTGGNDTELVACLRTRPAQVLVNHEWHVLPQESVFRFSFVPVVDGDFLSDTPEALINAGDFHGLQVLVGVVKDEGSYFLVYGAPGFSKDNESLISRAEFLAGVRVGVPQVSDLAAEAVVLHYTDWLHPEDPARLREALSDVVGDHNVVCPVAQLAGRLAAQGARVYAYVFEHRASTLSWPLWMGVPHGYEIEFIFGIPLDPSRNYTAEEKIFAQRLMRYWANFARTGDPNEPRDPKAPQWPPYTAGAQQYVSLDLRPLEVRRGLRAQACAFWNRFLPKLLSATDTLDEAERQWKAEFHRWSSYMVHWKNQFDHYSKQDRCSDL
Protocol for butyrylcholinesterase: In studying the inhibitory effect of the compounds according to the invention, a modified Elman's method was used. Butyrylcholine iodide was used as substrate. Butyrylcholinesterase is a commercial product (Sigma). Enzyme activity determination was performed in 0,1 M sodium phosphate buffer pH 8,0 at 25 °C. To 1 ml of the buffer, 90 mcl (7,5 MM) butyrylcholine iodide and 45 mcl (10 MM) 5,5'-ditiobis-2-nitrobenzoic acid (DTNB) were added. After stirring, 1 EU butyrylcholinesterase was added. The enzyme reaction was monitored according to the change of absorption at 412 nm in a period of 2 to10 min. The speed of the enzyme reaction was calculated in M/l.sec, using an absorption coefficient of 14,15 .10^3 1/M.cm (Eyer). Each test was repeated 3 times. The substances under study were dissolved in 50% ethyl alcohol. To trace the inhibiting effect, the compounds under study were added in different concentrations to 1,5 ml of phosphate buffer and 1 EU enzyme. They were incubated for 30 min at 25 °C, then butyrylcholine iodide and DTNB were added and the course of the enzyme reaction was monitored according to the description above. […] After a preliminary screening, such concentrations of the test substances were selected that have an inhibiting effect between 20 and 80%. To determine the inhibition constant (Ki), minimum 3 different concentrations of the test compounds under study were used. The inhibition curves for each selected concentration of the inhibitor were made using the method of double reciprocal values (Lineweaver, Burk), substrate concentration being within 90 - 3300 .10^-6 M/l. IC50 values were determined using the log-probit method. The calculations were made using the matlab6 program. IC50 values were made on the basis of experimental data obtained for different concentrations of the compounds manifesting inhibitory activity.

For the compound `CC(Nc1ccc(Cl)c(Cl)c1)C(=O)N[C@@H](Cc1ccccc1)C(=O)O` (mixture of isomers) [AF, N-(3,4-dichlorophenyl)-D,L-alanyl-L-phenylalanine], the γ-Secretase effect result at γ-secretase is reported as “comparable with the effect of DAPT”.

As a reminder, the IC50 is the concentration that inhibits the measured activity by half. With `COc1ccc2c3c1O[C@H]1C[C@@H](O)C=C[C@@]31CCN(C(=O)[C@H](Cc1ccccc1)NC(=O)C(C)Nc1ccc(Cl)c(Cl)c1)C2` (stereo partly drawn) [Compound 5, 11-N-demethyl-11-N-N-[N-(3,4-dichlorophenyl)-D,L-alanyl]-L-phenylalanyl-galanthamine], the half-inhibitory concentration (IC50) against butyrylcholinesterase worked out at 0.447 µM; against acetylcholinesterase it was 12.5 µM.

With `C[C@H](NC(=O)Cc1cc(F)cc(F)c1)C(=O)N[C@H](C(=O)OC(C)(C)C)c1ccccc1` [DAPT, N-[N-(3,5-difluorophenylacetyl)-L-alanyl]-S-phenylglycin tertiary butyl ester, reference compound], at γ-secretase (6 hours incubation, serum-free medium, figure 1), the “concentrations at which the quantity of β amyloid is decreased by inhibiting γ-secretase activity” value is “higher than 160 nM”.

Turning to `CC(C)C[C@H](NC(=O)C(C)Nc1ccc(Cl)c(Cl)c1)C(=O)O` (mixture of isomers) [AL, N-(3,4-dichlorophenyl)-D,L-alanyl-L-leucine], at γ-secretase (6 hours incubation), the “concentrations at which the substances have γ-secretase activity” value is on record as “higher than 0,02 µM” and the “decrease of β-amyloid quantity in the cell medium” value is recorded as “significant decrease”.

Turning to `COc1ccc2c3c1O[C@H]1C[C@@H](OC(=O)CNC(=O)C(C)Nc4ccc(Cl)c(Cl)c4)C=C[C@@]31CCN(C)C2` (stereo partly drawn) [Compound 1, 6-O-N-[N-(3,4-dichlorophenyl)-D,L-alanyl]-glycil-galanthamine], half-maximal inhibition against butyrylcholinesterase (IC50) was put at 23.7 µM. For the same compound, at γ-secretase, the “quantity of amyloid β” value was “decreased significantly” and the γ-Secretase effect result was “no inhibitory effect”. In addition, the midpoint of inhibition against acetylcholinesterase, the IC50, lay at 3.98 µM.

Regarding `COc1ccc2c3c1OC1CC(O)C=CC31CCN(C(=O)C(NC(=O)C(C)Nc1ccc(Cl)c(Cl)c1)C(C)C)C2` [Compound 6, 11-N-demethyl-11-N-N-[N-(3,4-dichlorophenyl)-D,L-alanyl]-L-valyl-galanthamine], the values for the 50% inhibitory concentration (IC50) at butyrylcholinesterase (setting [1]) and at acetylcholinesterase (setting [2]) were 0.603 µM and 31.2 µM, respectively.

On to `COc1ccc2c3c1OC1CC(OC(=O)CNC(=O)C(CC(C)C)NC(=O)C(C)Nc4ccc(Cl)c(Cl)c4)C=CC31CCN(C)C2` [Compound 3, 6-O-N-[N-(3,4-dichlorophenyl)-D,L-alanyl]-L-leucil-glycil-galanthamine], for which the IC50 on butyrylcholinesterase (setting [1]) came to 0.612 µM. Further, at γ-secretase, the “quantity of amyloid β” value is “decreased significantly” and the γ-Secretase effect result is on record as “comparable with the effect of DAPT”. Also, at acetylcholinesterase (setting [2]), the concentration for half-maximal inhibition (IC50) stood at 3.35 µM.

Regarding `COc1ccc2c3c1OC1CC(OC(=O)CNC(=O)C(NC(=O)C(C)Nc4ccc(Cl)c(Cl)c4)C(C)C)C=CC31CCN(C)C2` [Compound 4, 6-O-N-[N-(3,4-dichlorophenyl)-D,L-alanyl]-L-valyl-glycil-galanthamine], at butyrylcholinesterase (setting [1]), the IC50 was 0.335 µM. Also, on γ-secretase (6 hours incubation), the “concentrations at which the substances have γ-secretase activity” value is listed as “higher than 0,02 µM” and the “decrease of β-amyloid quantity in the cell medium” value is recorded as “significant decrease”. The 50% inhibitory concentration (IC50) on acetylcholinesterase (setting [2]) stood at 8.33 µM.

On to `COc1ccc2c3c1OC1CC(OC(=O)CNC(=O)C(Cc4ccccc4)NC(=O)C(C)Nc4ccc(Cl)c(Cl)c4)C=CC31CCN(C)C2` [Compound 2, 6-O-N-[N-(3,4-dichlorophenyl)-D,L-alanyl]-L-phenylalanyl-glycil galanthamine], for which the results for the 50% inhibitory concentration (IC50) at butyrylcholinesterase (setting [1]) and at acetylcholinesterase (setting [2]) were 10 µM and 3.76 µM, respectively.
